# Experimental data from patent publication US7514443B2, “Substituted pyrazolo[1,5-a]pyrimidines as inhibitors of metabotropic glutamate receptors” (Hoffmann-La Roche Inc., priority 2003, dated 2009).
row,melting point [°C],SMILES
1,267,"Fc1cc(-c2cc(C(F)(F)F)n3cnc(-c4ccncc4)c3n2)ccc1C(F)(F)F [Example 8.15, 2-(3-Fluoro-4-trifluoromethyl-phenyl)-8-pyridin-4-yl-4-trifluoromethyl-imidazo[1,5-a]pyrimidine]"
2,178,"CCOc1ccc(-c2cc(C(F)(F)F)n3ncc(-c4cccnc4)c3n2)cc1C(F)(F)F [Example 4.40, 5-(4-Ethoxy-3-trifluoromethyl-phenyl)-3-pyridin-3-yl-7-trifluoromethyl-pyrazolo[1,5-a]pyrimidine]"
3,243,"Cc1cc(-c2cnn3c(C(F)(F)F)cc(-c4ccc(C(F)(F)F)cc4)nc23)ccn1 [Example 4.33, 5-(4-Trifluoromethyl-phenyl)-3-(2-methyl-pyridin-4-yl)-7-trifluoromethyl-pyrazolo[1,5-a]pyrimidine]"
4,269,"FC(F)(F)COc1ccc(-c2cc(C(F)(F)F)n3cnc(-c4ccncc4)c3n2)cc1C(F)(F)F [Example 8.18, 8-Pyridin-4-yl-2-[4-(2,2,2-trifluoro-ethoxy)-3-trifluoromethyl-phenyl]-4-trifluoromethyl-imidazo[1,5-a]pyrimidine]"
5,243,"Cc1cc(-c2ncn3c(C(F)(F)F)cc(-c4ccc(C(F)(F)F)c(C)c4)nc23)ccn1 [Example 8.29, 2-(3-Methyl-4-trifluoromethyl-phenyl)-8-(2-methyl-pyridin-4-yl)-4-trifluoromethyl-imidazo[1,5-a]pyrimidine]"
6,257,"CCOc1cc(-c2cc(C(F)(F)F)n3ncc(-c4cc(C)nc(C)c4)c3n2)ccc1C(F)(F)F [Example 4.48, 3-(2,6-Dimethyl-pyridin-4-yl)-5-(3-ethoxy-4-trifluoromethyl-phenyl)-7-trifluoromethyl-pyrazolo[1,5-a]pyrimidine]"
7,188,"FC(F)(F)c1cc(-c2ccc(Cl)cc2)nc2c(-c3cccnc3)cnn12 [Example 4.1, 5-(4-Chloro-phenyl)-3-pyridin-3-yl-7-trifluoromethyl-pyrazolo[1,5-a]pyrimidine]"
8,220,"Cc1cc(-c2cnn3c(C(F)(F)F)cc(-c4ccc(Cl)cc4)nc23)ccn1 [Example 4.29, 5-(4-Chloro-phenyl)-3-(2-methyl-pyridin-4-yl)-7-trifluoromethyl-pyrazolo[1,5-a]pyrimidine]"
9,209,"FC(F)(F)c1ccc(-c2cc(C(F)(F)F)n3ncc(-c4ccncc4)c3n2)cc1C(F)(F)F [Example 4.53, 5-(3,4-Bis-trifluoromethyl-phenyl)-3-pyridin-4-yl-7-trifluoromethyl-pyrazolo[1,5-a]pyrimidine]"
10,237,"Cc1cc(-c2cnn3c(C(F)(F)F)cc(-c4ccc(C(F)(F)F)c(C)c4)nc23)ccn1 [Example 4.39, 5-(3-Methyl-4-trifluoromethyl-phenyl)-3-(2-methyl-pyridin-4-yl)-7-trifluoromethyl-pyrazolo[1,5-a]pyrimidine]"
11,254,"Cc1cc(-c2cnn3c(C(F)(F)F)cc(-c4ccc(Cl)c(C)c4)nc23)cc(C)n1 [Example 4.20, 5-(4-Chloro-3-methyl-phenyl)-3-(2,6-dimethyl-pyridin-4-yl)-7-trifluoromethyl-pyrazolo[1,5-a]pyrimidine]"
12,206,"FC(F)(F)c1cc(-c2ccc(Cl)cc2)nc2c(-c3cccnc3)ncn12 [Example 8.2, 2-(4-Chloro-phenyl)-8-pyridin-3-yl-4-trifluoromethyl-imidazo[1,5-a]pyrimidine]"
13,245,"Cc1cc(-c2cnn3c(C(F)(F)F)cc(-c4ccc(C(F)(F)F)c(OCC(F)(F)F)c4)nc23)cc(C)n1 [Example 4.51, 3-(2,6-Dimethyl-pyridin-4-yl)-5-[3-(2,2,2-trifluoro-ethoxy)-4-trifluoromethyl-phenyl]-7-trifluoromethyl-pyrazolo[1,5-a]pyrimidine]"
14,245,"Cc1cc(-c2cnn3c(C(F)(F)F)cc(-c4ccc(C(F)(F)F)c(F)c4)nc23)cc(C)n1 [Example 4.25, 5-(3-Fluoro-4-trifluoromethyl-phenyl)-3-(2,6-dimethyl-pyridin-4-yl)-7-trifluoromethyl-pyrazolo[1,5-a]pyrimidine]"
15,221,"N#Cc1ncn2c(C(F)(F)F)cc(-c3cccc(Cl)c3)nc12 [Example 5.3, 2-(3-Chloro-phenyl)-4-trifluoromethyl-imidazo[1,5-a]pyrimidine-8-carbonitrile]"
16,240,"Cc1cc(-c2cnn3c(C(F)(F)F)cc(-c4ccc(Cl)c(C)c4)nc23)ccn1 [Example 4.30, 5-(4-Chloro-3-methyl-phenyl)-3-(2-methyl-pyridin-4-yl)-7-trifluoromethyl-pyrazolo[1,5-a]pyrimidine]"
17,240,"FC(F)(F)c1ccc(-c2cc(C(F)(F)F)n3cnc(-c4ccncc4)c3n2)cc1 [Example 8.14, 8-Pyridin-4-yl-4-trifluoromethyl-2-(4-trifluoromethyl-phenyl)-imidazo[1,5-a]pyrimidine]"
18,180,"N#Cc1ncn2c(C(F)(F)F)cc(-c3ccccc3Cl)nc12 [Example 5.6, 2-(2-Chloro-phenyl)-4-trifluoromethyl-imidazo[1,5-a]pyrimidine-8-carbonitrile]"
19,202,"Cc1cccc(-c2cc(C(F)(F)F)n3ncc(C#N)c3n2)c1 [Example 1.5, 5-(3-Methyl-phenyl)-7-trifluoromethyl-pyrazolo[1,5-a]pyrimidine-3-carbonitrile]"

row,melting point [°C],SMILES
1,212,"CCOc1cc(-c2cc(C(F)(F)F)n3cnc(-c4ccncc4)c3n2)ccc1C(F)(F)F [Example 8.30, 2-(3-Ethoxy-4-trifluoromethyl-phenyl)-8-pyridin-4-yl-4-trifluoromethyl-imidazo[1,5-a]pyrimidine]"
2,275,"Cc1cc(-c2cnn3c(C(F)(F)F)cc(-c4ccc(Cl)c(Cl)c4)nc23)ccn1 [Example 4.32, 5-(3,4-Dichloro-phenyl)-3-(2-methyl-pyridin-4-yl)-7-trifluoromethyl-pyrazolo[1,5-a]pyrimidine]"
3,151,"Cc1ccccc1-c1cc(C(F)(F)F)n2cnc(C#N)c2n1 [Example 5.8, 2-(2-Methyl-phenyl)-4-trifluoromethyl-imidazo[1,5-a]pyrimidine-8-carbonitrile]"
4,233,"CCOc1ccc(-c2cc(C(F)(F)F)n3ncc(-c4ccncc4)c3n2)cc1C(F)(F)F [Example 4.41, 5-(4-Ethoxy-3-trifluoromethyl-phenyl)-3-pyridin-4-yl-7-trifluoromethyl-pyrazolo[1,5-a]pyrimidine]"
5,169,"N#Cc1cnn2c(C(F)(F)F)cc(-c3ccccc3Cl)nc12 [Example 1.3, 5-(2-Chloro-phenyl)-7-trifluoromethyl-pyrazolo[1,5-a]pyrimidine-3-carbonitrile]"
6,265,"Fc1ccc(-c2cc(C(F)(F)F)n3ncc(-c4ccncc4)c3n2)cc1Cl [Example 4.7, 5-(3-Chloro-4-fluoro-phenyl)-3-pyridin-4-yl-7-trifluoromethyl-pyrazolo[1,5-a]pyrimidine]"
7,201,"Cc1cc(-c2cnn3c(C(F)(F)F)cc(-c4ccc(C(F)(F)F)c(OCC(F)(F)F)c4)nc23)ccn1 [Example 4.52, 3-(2-Methyl-pyridin-4-yl)-5-[3-(2,2,2-trifluoro-ethoxy)-4-trifluoromethyl-phenyl]-7-trifluoromethyl-pyrazolo[1,5-a]pyrimidine]"
8,204,"N#Cc1cnn2c(C(F)(F)F)cc(-c3cccc(Cl)c3)nc12 [Example 1.1, 5-(3-Chloro-phenyl)-7-trifluoromethyl-pyrazolo[1,5-a]pyrimidine-3-carbonitrile]"
9,183,"Cc1cc(-c2cc(C(F)(F)F)n3ncc(-c4ccccn4)c3n2)ccc1Cl [Example 4.5, 5-(4-Chloro-3-methyl-phenyl)-3-pyridin-2-yl-7-trifluoromethyl-pyrazolo[1,5-a]pyrimidine]"
10,182,"Cc1ccc(-c2cc(C(F)(F)F)n3ncc(-c4cccnc4)c3n2)cc1C(F)(F)F [Example 4.26, 5-(4-Methyl-3-trifluoromethyl-phenyl)-3-pyridin-3-yl-7-trifluoromethyl-pyrazolo[1,5-a]pyrimidine]"
11,220,"Cc1ccc(-c2cc(C(F)(F)F)n3cnc(C#N)c3n2)cc1C(F)(F)F [Example 5.22, 2-(4-Methyl-3-trifluoromethyl-phenyl)-4-trifluoromethyl-imidazo[1,5-a]pyrimidine-8-carbonitrile]"
12,258,"FC(F)(F)c1cccc(-c2cc(C(F)(F)F)n3cnc(-c4ccncc4)c3n2)c1 [Example 8.13, 8-Pyridin-4-yl-4-trifluoromethyl-2-(3-trifluoromethyl-phenyl)-imidazo[1,5-a]pyrimidine]"
13,254,"N#Cc1ncn2c(C(F)(F)F)cc(-c3ccncc3)nc12 [Example 5.27, 2-Pyridin-4-yl-4-trifluoromethyl-imidazo[1,5-a]pyrimidine-8-carbonitrile]"
14,189,"Cc1cc(-c2ncn3c(C(F)(F)F)cc(-c4ccc(C(F)(F)F)c(OCC(F)(F)F)c4)nc23)ccn1 [Example 8.33, 8-(2-Methyl-pyridin-4-yl)-2-[3-(2,2,2-trifluoro-ethoxy)-4-trifluoromethyl-phenyl]-4-trifluoromethyl-imidazo[1,5-a]pyrimidine]"
15,218,"Cc1cc(-c2ncn3c(C(F)(F)F)cc(-c4ccc(C(F)(F)F)c(C(F)(F)F)c4)nc23)ccn1 [Example 8.35, 2-(3,4-Bis-trifluoromethyl-phenyl)-8-(2-methyl-pyridin-4-yl)-4-trifluoromethyl-imidazo[1,5-a]pyrimidine]"
16,254,"Cc1cc(-c2cc(C(F)(F)F)n3cnc(-c4ccncc4)c3n2)ccc1Cl [Example 8.10, 2-(4-Chloro-3-methyl-phenyl)-8-pyridin-4-yl-4-trifluoromethyl-imidazo[1,5-a]pyrimidine]"
17,149,"N#Cc1cnn2c(C(F)(F)F)cc(-c3ccc(F)cc3F)nc12 [Example 1.10, 5-(2,4-Difluoro-phenyl)-7-trifluoromethyl-pyrazolo[1,5-a]pyrimidine-3-carbonitrile]"
18,249,"Cc1cc(-c2ncn3c(C(F)(F)F)cc(-c4ccc(Br)cc4)nc23)ccn1 [Example 8.36, 2-(4-Bromo-phenyl)-8-(2-methyl-pyridin-4-yl)-4-trifluoromethyl-imidazo[1,5-a]pyrimidine]"
